Source: patent US8153410B2, “Alternate morpheein forms of allosteric proteins as a target for the development of bioactive molecules” (Fox Chase Cancer Center, priority 2003, dated 2012)
Like-named read-outs stand apart in the source and are kept apart here.

Biological target: T1, pea PBGS (Pisum sativum, UniProt P30124)
T1 sequence (P30124 69-398 limits assumed): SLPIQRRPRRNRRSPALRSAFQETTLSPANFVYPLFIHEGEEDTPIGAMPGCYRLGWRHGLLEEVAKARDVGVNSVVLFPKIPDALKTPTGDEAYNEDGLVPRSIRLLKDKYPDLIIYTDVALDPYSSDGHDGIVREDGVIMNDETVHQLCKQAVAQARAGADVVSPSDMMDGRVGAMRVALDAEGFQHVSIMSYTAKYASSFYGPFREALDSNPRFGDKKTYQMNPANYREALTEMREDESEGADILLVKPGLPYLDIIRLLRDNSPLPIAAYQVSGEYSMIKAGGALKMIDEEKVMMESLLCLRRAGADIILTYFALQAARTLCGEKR
Assay: pea PBGS activity assay (inhibition, protein concentration dependent specific activity)
Format: biochemical
Design: made in house
Method: FIG. 32(a) The inhibitor morphlock-1 is illustrated as posed by Glide. The subunits A, B, and E are illustrated as ribbon diagram. Morphlock-1 is shown with carbon atoms and illustrated as ball and stick. FIG. 32(b) The chemical structure of morphlock-1. […] Pea PBGS was incubated with various concentrations of morphlock-1 (in a DMSO solution). Each concentration of morphlock-1 with a fixed amount of DMSO was incubated with protein for 30 minutes at 37° C. prior to resolution on 12.5% polyacrylamide native PhastGels. […] (d) The protein concentration dependence of pea PBGS specific activity is illustrated. […] The final concentration of morphlock-1 in the inhibited assay was 5 μM, and the concentration of PBGS in the inhibited and control assays ranged from 0.05-50 μg/mL (0.014-1.4 μM).
The proteins were incubated in the presence of 10× inhibitor for 30 minutes at 37° C. prior to assay. The concentrations on the X-axis represent the final concentration of morphlock-1 in the assay. FIG. 33(b). […] IC50 values were determined as per part (a) using the noted concentrations of pea PBGS. (c) Native PAGE evaluation of the effect of morphlock-1 on the quaternary structure equilibria of PBGS (˜1 mg/ml) from D. melanogaster, P. aeruginosa, V. cholerae, and H. sapiens. Note that the charge/mass ratio is not the same for PBGS from different species.
The dose response curve for morphlock-1 inhibition of pea PBGS (FIG. 37a) was initially carried out at 0.03 μM pea PBGS, where the hexamer is a significant component of the equilibrium mixture; the morphlock-1 concentration was varied from 0.1 μM to 0.1 mM.
The dose response curve for morphlock-1 inhibition of pea PBGS (FIG. 33(a)) was initially carried out at 0.03 μM pea PBGS, where the hexamer is a significant component of the equilibrium, in order to optimize the observed inhibition; the morphlock-1 concentration was varied from 0.1 μM to 0.1 mM.

## O=C1Nc2ccc(S(=O)(=O)NCC(O)c3ccc([N+](=O)[O-])cc3)c3cccc1c23 (stereo not drawn) [morphlock-1, 2-oxo-1,2-dihydro-benzo(cd)indole-6-sulfonic acid[2-hydroxy-2-(4-nitro-phenyl)-ethyl]-amide]
0.03 μM pea PBGS, morphlock-1 0.1 μM to 0.1 mM, 30 minutes at 37° C. prior to assay, read-out: apparent IC50 of morphlock-1 inhibition of pea PBGS
  IC50: 1200 nM
Low protein concentration, activity assays, read-out: IC50 by kinetic analysis / activity assays (and native PAGE with more sensitive staining)
  IC50: ~1000 nM
morphlock-1 set at 5 μM, K(0.5) without morphlock-1 0.064 μM
  K(0.5) of the protein concentration dependent specific activity in the presence of morphlock-1: 0.134 µM
